The source of these data is US6566541B2, “Type 2 methionine aminopeptidase (MetAP2) inhibitors and uses thereof” (Massachusetts Institute of Technology, priority 1997, dated 2003).

In test [1] the target is T1, recombinant human MetAP2 (Homo sapiens, UniProt P50579).
T1 construct: made in house; host or cells: insect cells
Briefly: methionine aminopeptidase activity of MetAP2 (Met-Gly-Met-Met substrate). Format: biochemical. On the procedure: Recombinant human MetAP2 was expressed and purified from insect cells as described in Li and Chang, Biochem. Biophys. Res. Commun. […] Released methionine was quantified at different time points (0, 2, 3 and 5 min) using the method of Zuo et al., Mol. Gen.
(§1) Synthesis was according to the procedures as described in Mauri et al., Chem. Pharm. Bull. […] Bull.

For test [2], the system named is bovine aortic endothelial cell (BAEC). Kind of test: bovine aortic endothelial cell (BAEC) proliferation assay (MTT). Format: cell-based. The settings on record: for IC50: Bos taurus; for activity in the BAEC proliferation assay: result in words. On the procedure:
BAEC were trypsinized and plated into 96-well plates at a density of 2000 cells per well. After the cells adhered to the plate, compounds dissolved in ethanol (final concentration of 0.5%) were added to the cultures.
as §1

The next test deals with recombinant yeast MetAP2 (Saccharomyces cerevisiae, UniProt P38174). Briefly: MetAP activity of recombinant yeast MetAP2 in vitro. Format: biochemical. The settings on record: concentrations as low as 5 nM.
Chain of recombinant yeast MetAP2 (P38174 whole entry): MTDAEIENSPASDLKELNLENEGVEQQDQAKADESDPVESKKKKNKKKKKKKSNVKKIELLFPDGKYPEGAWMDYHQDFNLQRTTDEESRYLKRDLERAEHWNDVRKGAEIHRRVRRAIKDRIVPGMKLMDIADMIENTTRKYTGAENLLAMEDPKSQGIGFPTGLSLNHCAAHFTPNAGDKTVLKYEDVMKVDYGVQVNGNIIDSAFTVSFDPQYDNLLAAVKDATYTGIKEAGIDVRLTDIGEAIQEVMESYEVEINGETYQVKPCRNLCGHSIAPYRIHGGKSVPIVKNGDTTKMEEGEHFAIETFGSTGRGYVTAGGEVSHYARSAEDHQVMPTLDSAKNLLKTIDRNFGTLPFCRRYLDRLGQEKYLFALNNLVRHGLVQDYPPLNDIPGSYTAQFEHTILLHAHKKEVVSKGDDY
Test [3] has as its system map1 null [XLP101 (map1::HIS3)] yeast cells. Kind of test: yeast growth on YEPD plates containing drug, map1 null. It is filed as cell-based, Saccharomyces cerevisiae. The settings on record: 50 nM drug, YEPD plate, 30° C., four days. An excerpt:
(§2) […]. […] […].

In test [4] the test system is Wild-type [YPH500] yeast cells. Briefly: yeast growth on YEPD plates containing drug, wild type. The settings on record: 50 nM drug, YEPD plate, 30° C., four days. Format: cell-based, Saccharomyces cerevisiae.
Excerpt: as §2

The target in the next test is T2, recombinant yeast MetAP1 (Saccharomyces cerevisiae, UniProt Q01662).
T2 sequence (Q01662 1-387): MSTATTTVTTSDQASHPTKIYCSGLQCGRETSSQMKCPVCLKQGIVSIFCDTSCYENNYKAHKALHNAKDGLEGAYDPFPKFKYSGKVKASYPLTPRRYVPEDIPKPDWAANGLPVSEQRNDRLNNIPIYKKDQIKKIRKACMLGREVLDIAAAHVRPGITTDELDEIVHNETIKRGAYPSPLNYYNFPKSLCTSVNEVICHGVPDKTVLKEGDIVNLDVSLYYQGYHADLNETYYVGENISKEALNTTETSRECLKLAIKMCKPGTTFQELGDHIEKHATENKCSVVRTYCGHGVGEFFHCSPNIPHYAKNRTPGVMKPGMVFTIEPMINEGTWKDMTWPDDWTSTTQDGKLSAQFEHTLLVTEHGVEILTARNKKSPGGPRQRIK
Briefly: MetAP activity of recombinant yeast MetAP1 in vitro. It is filed as biochemical. The settings on record: concentrations up to 10 μM.

Test [5] concerns the target T1, recombinant human MetAP2. Briefly: covalent binding to MetAP2 (biotin conjugates, denaturing SDS-PAGE, streptavidin-HRP). The settings on record: drug-protein complex maintained under denaturing conditions.
Method: The protein samples were boiled in a sample buffer containing SDS and β-mercaptoethanol, subjected to SDS-PAGE, and transferred to nitrocellulose.
100 ng of recombinant human MetAP2 was incubated in 40 μl binding buffer (20 mM Tris·HCl, pH 7.1, 100 mM KCl, 0.2% Triton X-100) in the presence or absence of competitors for 1 hr followed by incubation with the biotin conjugates (1 μM) at 4° C. for 2 hr. 40 μl of 2×SDS sample buffer containing β-mercaptoethanol was added and the samples were boiled for 10 min. Following SDS-PAGE, the samples were transferred to nitrocellulose at 50V for 1 hr at 4° C. and blocked overnight in blocking solution (5% BSA, 2% Nonfat milk, 0.02% NaN3 in PBS). The membrane was incubated with rabbit anti-human MetAP2 antibodies (1:500) for 1 hr at room temperature, followed by incubation with sheep anti-rabbit IgG-HRP or incubated with streptavidin-HRP (1:1000) for 1 hr and visualized with the chemilluminescent ECL kit (Amersham, Arlington Heights, Ill.), as per manufacturer's instructions.
The target in another test is T3, 67 kD (p67) (Bos taurus, UniProt Q3ZC89).
T3 construct: endogenous in cells; host or cells: BAEC (bovine aortic endothelial cells) extract
T3 sequence (Q3ZC89 whole entry): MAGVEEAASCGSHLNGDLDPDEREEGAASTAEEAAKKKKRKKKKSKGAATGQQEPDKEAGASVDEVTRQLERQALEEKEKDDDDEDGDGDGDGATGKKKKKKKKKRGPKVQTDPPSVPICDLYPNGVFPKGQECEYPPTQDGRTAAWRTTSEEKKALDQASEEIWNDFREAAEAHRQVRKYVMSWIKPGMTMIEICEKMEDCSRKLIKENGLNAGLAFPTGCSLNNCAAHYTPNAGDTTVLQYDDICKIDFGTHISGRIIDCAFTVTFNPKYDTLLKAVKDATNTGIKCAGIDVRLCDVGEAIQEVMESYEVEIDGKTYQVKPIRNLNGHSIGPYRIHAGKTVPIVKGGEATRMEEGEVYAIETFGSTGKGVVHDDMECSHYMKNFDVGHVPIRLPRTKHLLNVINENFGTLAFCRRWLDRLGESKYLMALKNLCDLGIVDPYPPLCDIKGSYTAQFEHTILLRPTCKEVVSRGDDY
Kind of test: competition of ovalicin photoaffinity labeling in BAEC extracts. It is filed as binding, bovine. The settings on record: BAEC extract preincubated with excess cold competitor. On the procedure: Photoaffinity labeling was performed as follows. […] Reaction mixtures were incubated on ice in the dark for 1 hr and then irradiated at 254 nm (0.2 J/cm^2). Reactions were quenched by adding 1.5 μl β-mercaptoethanol followed by 7.5 μl 5×SDS sample buffer and heated in a boiling water bath for 3 min. Samples were analyzed by 10% SDS/PAGE, followed by autoradiography.

The target in another test is p67 (MetAP2) (Mus musculus, UniProt O08663).
Chain of p67 (MetAP2) (O08663 whole entry): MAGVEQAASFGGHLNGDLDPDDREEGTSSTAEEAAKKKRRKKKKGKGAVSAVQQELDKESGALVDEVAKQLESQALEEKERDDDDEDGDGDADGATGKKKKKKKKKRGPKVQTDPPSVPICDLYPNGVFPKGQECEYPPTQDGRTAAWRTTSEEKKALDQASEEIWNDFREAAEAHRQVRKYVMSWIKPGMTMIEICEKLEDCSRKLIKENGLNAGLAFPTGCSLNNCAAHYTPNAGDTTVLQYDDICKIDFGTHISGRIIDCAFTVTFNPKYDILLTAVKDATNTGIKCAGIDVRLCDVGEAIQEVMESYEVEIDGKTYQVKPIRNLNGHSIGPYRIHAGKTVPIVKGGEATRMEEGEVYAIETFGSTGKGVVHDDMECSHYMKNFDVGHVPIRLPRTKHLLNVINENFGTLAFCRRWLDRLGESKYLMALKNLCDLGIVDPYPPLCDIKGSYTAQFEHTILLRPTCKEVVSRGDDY
For test [6], the system named is map2 null [XLP201 (map2::URA3)] yeast cells. The settings on record: 50 nM drug, YEPD plate, 30° C., four days. The procedure:
To further test the specificity of these drugs, both wild type and mutant yeast strains lacking either MetAP1 (map1) or MetAP2 (map2) were plated onto media containing the two drugs. […] The plates were incubated at 30° C. for four days.

The target in test [7] is T1, recombinant human MetAP2. Briefly: MetAP2 inhibition of eIF-2α phosphorylation by heme-regulated inhibitor kinase (HRI). Format: biochemical. The settings on record: compared with unbound MetAP2. On the procedure:
Modified or control MetAP2 (0.6 μg) was incubated with purified eIF-2 (0.3 μg) in 20 mM Tris·HCl, pH 7.8, 40 mM KCl, and 2 mM MgAC2 on ice for 1 hr. Recombinant HRI (0.25 ng) and [γ-^32P]ATP were then added to a final total volume of 20 μl and the reaction mixture was further incubated at 37° C. for 10 min. The labeled eIF-2α was analyzed by 10% SDS-PAGE followed by autoradiography. The phosphorylated bands were quantified by NIH Image 1.60 software.

Setting [8] is: MetAP2 IC50 (nM), MetAP2 enzymatic activity, average of at least three experiments.
[9] abbreviates: BAEC proliferation, average of at least three experiments, read-out: Proliferation IC50.
Where [10] appears, read: BAEC, read-out: Proliferation IC50 (nM).
Setting [11] is: MetAP2 enzymatic activity, average of at least three experiments, read-out: MetAP2 IC50.

SMILES strings stand for the structures. Read-outs that look alike come from different tables or passages of the source.

T1 sequence (P50579 whole entry): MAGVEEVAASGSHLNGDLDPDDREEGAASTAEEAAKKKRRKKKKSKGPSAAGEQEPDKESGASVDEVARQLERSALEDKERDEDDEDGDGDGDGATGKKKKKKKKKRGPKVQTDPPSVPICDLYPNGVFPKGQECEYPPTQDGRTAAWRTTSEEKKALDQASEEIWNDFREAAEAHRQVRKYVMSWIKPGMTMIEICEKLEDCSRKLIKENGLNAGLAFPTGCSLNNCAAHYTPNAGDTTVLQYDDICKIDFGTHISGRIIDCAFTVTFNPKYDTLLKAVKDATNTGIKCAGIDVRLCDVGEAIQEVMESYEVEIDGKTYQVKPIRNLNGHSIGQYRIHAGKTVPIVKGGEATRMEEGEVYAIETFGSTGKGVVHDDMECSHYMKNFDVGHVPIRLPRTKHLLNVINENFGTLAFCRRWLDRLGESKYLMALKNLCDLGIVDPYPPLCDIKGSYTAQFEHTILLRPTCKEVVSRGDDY

Turning to `CO[C@@H]1[C@H](OC(=O)CCCCl)CC[C@]2(CO2)[C@@]1(O)[C@@]1(C)O[C@@H]1CC=C(C)C` [FOS-69, (3S,4R,5R,6R)-4-[(1′S,2′S)-1′,2′-Epoxy-1′5′-dimethyl-4′-hexenyl]-5-methoxy-6-O(4″chlorobutyryl)-1-oxaspiror[2.5]octane-4,6-diol], the IC50 at recombinant human MetAP2 [1] (setting [8]) stood at 0.1 ± 0.03 nM; in test [2] (setting [9]) it was 0.31 ± 0.066 nM.

For `CO[C@@H]1[C@H](O)CC[C@]2(CO2)[C@@]1(O)[C@@]1(C)O[C@@H]1CC=C(C)C` [FOS-34, (3S,4R,5R,6R)-4-[(1′S,2′S)-1′,2′-Epoxy-1′,5′-dimethyl-4′-hexenyl]-5-methoxy-1-oxaspiror[2.5]octane-4,6-diol], the IC50 at recombinant human MetAP2 [1] (setting [8]) came out at 4 ± 1 nM; in test [2] (setting [10]), 2.2 ± 1.4 nM.

Take `COC1C(OC(=O)NC(=O)CCl)CCC(O)(CSC)C1(O)C1(C)OC1CC=C(C)C` [FOS-67, (1R,2S,3R,4R)-1-Methylthiomethylene-2-[(1′S,2′S)-1′,2′-epoxy-1′,5′-dimethyl-4′-hexenyl]-3-methoxy-4-O-(N-chloroacetyl)carbamoyl-cyclohexane-1,2,4-triol]: the results for the IC50 (on recombinant human MetAP2 [1] (setting [11]); in [2] (setting [9])) were 400 ± 200 nM and 40 ± 4 nM, respectively.

With `CO[C@@H]1[C@H](OC(=O)NCCNC(=O)CCc2ccc(O)cc2)CC[C@]2(CO2)[C@@]1(O)C1(C)O[C@@H]1CC=C(C)C` (some centres unmarked) [photoaffinity label mimic], in [2], the “activity in the BAEC proliferation assay” value is “retained significant, albeit decreased, activity”.

Turning to `COC1C(OC(=O)NCCCCCCCCNC(=O)CCCCC2SCC3NC(=O)NC32)CCC2(CO2)C1C1(C)OC1CC=C(C)C` (centres unmarked) [biotin-fumagillin], in test [2], the “activity in the BAEC proliferation assay” value was “retain significant activity”.

As for `CO[C@@H]1C(=O)CC[C@]2(CO2)[C@@]1(O)[C@@]1(C)O[C@@H]1CC=C(C)C` [Ovalicin], the “inhibition of the yeast MetAP2 enzyme” value at recombinant yeast MetAP2 is given as “completely inhibited”. For the same compound, in test [3], the “growth of the map1 mutant” value is “completely inhibited”. Further, in test [4], the “growth of wild type yeast” value is reported as “resistant”. Also, at recombinant yeast MetAP1, the “inhibition of MetAP activity of the type 1 enzyme” value was “No inhibition”.

In the case of `CO[C@@H]1[C@H](OC(=O)NC(=O)CCl)CC[C@]2(CO2)[C@H]1[C@@]1(C)O[C@@H]1CC=C(C)C` [AGM-1470], the “inhibition of the yeast MetAP2 enzyme” value on recombinant yeast MetAP2 is “completely inhibited”. Moreover, the “mode of binding to MetAP2” value on recombinant human MetAP2 [5] is given as “bound to MetAP2 covalently”. Besides, the IC50 is ~1 nM at recombinant human MetAP2 [1] (IC50, methionine aminopeptidase activity of MetAP2, estimated, 1 nM of recombinant human MetAP2 used in the assay); 1 ± 0.3 nM at recombinant human MetAP2 [1] (setting [8]); 0.037 ± 0.0024 nM in test [2] (setting [9]). At 67 kD (p67), the “effect on p67 labeling by ovalicin photoaffinity probe” value is given as “abrogated p67 labeling”. For the same compound, on p67 (MetAP2) (Western blot of protein retained by biotin-fumagillin and biotin-ovalicin conjugates), the “competition of band reacting with anti-human MetAP2 antibodies” value was “elimination of the cross-reacting band”. At p67 (MetAP2) (mouse embryo extract, 50 μM competitor), the “p67 retention by biotin-ovalicin conjugate on immobilized streptavidin” value is listed as “sensitive”. Moreover, the “competition of p67 binding by biotin-fumagillin” value on p67 (MetAP2) (mouse embryo extract, 50 μM competitor, silver stain) is reported as “competed”. Also, the “growth of map2 mutant yeast” value in [6] is listed as “resistant”. For the same compound, in [3], the “growth of the map1 mutant” value is on record as “completely inhibited”. On recombinant human MetAP2 [7], the “MetAP2 bound by drug: inhibiting phosphorylation of eIF-2α by HRI” value is listed as “as effective as unbound MetAP2”. Moreover, in test [4], the “growth of wild type yeast” value is reported as “resistant”. Also, on recombinant yeast MetAP1, the “inhibition of MetAP activity of the type 1 enzyme” value is “No inhibition”.

As for `CO[C@@H]1[C@H](OC(=O)NC(=O)CCl)CC[C@]2(CO2)[C@@]1(O)[C@@]1(C)O[C@@H]1CC=C(C)C` [FOS-68, (3S,4R,5R,6R)-4-[(1′S,2′S)-1′,2′-Epoxy-1′,5′-dimethyl-4′-hexenyl]-5-methoxy-6-O(N-chloro-acetyl)carbamoyl-1-oxaspiror[2.5]octane-4,6-diol], the IC50 worked out at 2 ± 0.8 nM on recombinant human MetAP2 [1] (setting [11]) and 0.46 ± 0.26 nM in [2] (setting [9]).

`CO[C@@H]1C(=O)CC[C@]2(CO2)[C@H]1[C@@]1(C)O[C@@H]1CC=C(C)C` [FOS-72, (3R,4S,5S)-4-[(1′R,2′S)-1′,2′-Epoxy-1′,5′-dimethyl-4′-hexenyl]-5-methoxy-1-oxaspiror[2.5]octan-6-one]: the IC50 at recombinant human MetAP2 [1] (setting [11]) was determined as 6 ± 2 nM; in test [2] (setting [10]) it was 0.013 ± 0.0015 nM.

In the case of `COC1C(O)CCC(O)(CSC)C1(O)C1(C)OC1CC=C(C)C` [FOS-201, (1R,2S,3R,4R)-1-Methylthiomethylene-2-[(1′S,2′S)-1′,2′-epoxy-1′,5′-dimethyl-4′hexenyl]-3-methoxycyclohexane-1,2,4-triol], the IC50 on recombinant human MetAP2 [1] (setting [11]) was determined as 45 ± 12 nM; in test [2] (setting [9]), 56 ± 34 nM.
